Molecules are shown by their SMILES. Values joined by “and” are separate entries in the source; they are usually repeats but may differ in a detail not shown here. Equal values may be shown once.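 96-well plates; 48 h exposure; 5 concentrations. Endpoints by linear interpolation between flanking doses. Not reached: highest tested concentration assigned. GI50 = concentration required for 50% inhibition of growth. TGI: total growth inhibition.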

Experimental findings from PubChem BioAssay (NCI) are described below.

What all share (assay): NCI anticancer screen, dose series, 48 h
Test [1] relates to T-47D breast.
Test [2] concerns MALME-3M melanoma.
Test [3] has as its system M14 melanoma.
Test [4] deals with SK-MEL-2 melanoma.
For test [5], the system named is SK-OV-3 ovarian.
In test [6] the test system is CAKI-1 renal.
In test [7] the test system is 786-0 renal.
Test [8] deals with NCI/ADR-RES ovarian.
Test [9] deals with SK-MEL-5 melanoma.
For test [10], the system named is SN12C renal.

Regarding `COc1ccccc1Nc1ncc(-c2ccccc2)o1`, the GI50 in test [1] was more than 25 µM; in [2], more than 25 µM; in test [3], more than 25 µM; in [4], more than 25 µM; in test [5], more than 25 µM; in test [6], more than 24 µM. Besides, the GI50 in test [7], in test [8], in [9] and in test [10] was more than 25 µM throughout. Moreover, the TGI in test [1], in [2], in test [3], in test [4], in [5] and in test [6] was more than 25 µM throughout. In addition, the TGI in test [7], in test [8], in test [9] and in [10] was more than 25 µM each time.
For `COC(=O)C1=CN(CC2=CC(=O)C(C)=CC2=O)C=C(C(=O)OC)C1c1cccc(OC)c1`, the GI50 in test [1] was 8.26 µM; in test [2], 6.81 µM; in [3], 18.6 µM; in test [4], 24.3 µM; in test [5] it was 20.3 µM; in [6] it was 2.45 µM. The GI50 in test [7] was more than 22.5 µM; in [8] it was 12.4 µM; in test [9] it was 14.4 µM; in test [10] it was 22.9 µM. Further, the TGI was more than 100 µM in [1]; 16.1 µM in test [2]; 35.6 µM in [3]; more than 100 µM in [4]; 43.1 µM in test [5]; 5.61 µM in test [6]. Besides, the TGI was more than 41 µM in test [7], 60.2 µM in [8], 42.2 µM in test [9] and more than 60.5 µM in [10].
Consider `C=C1C(=O)OC2CC(C)C(C(O)CC(C)O)=CCC12` (centres undefined), for which the TGI is 23.6 µM in [1]; 21.9 µM in test [2]; 35 µM in test [3]; 38.5 µM in test [4]; more than 100 µM in test [5]; 9.26 µM in [6]. Moreover, the TGI worked out at 30.2 µM in test [7], 41 µM in test [8], 41.2 µM in test [9] and 33.1 µM in [10].
Turning to `Nc1ccn(C2OC(CO)C(O)C2O)c(=O)n1` (centres undefined), the GI50 was 4.2 µM in test [1]; 0.0741 µM in test [2]; 0.103 µM and 0.285 µM and 0.976 µM in [3]; 2.7 µM in test [5]; 0.107 µM in test [6]; 0.396 µM in test [7]. Further, the GI50 in [8] is 0.532 µM; in test [9] it was 2.89 µM; in test [10] it was 2.05 µM. In addition, the TGI in test [1] was more than 500 µM; in [4] it was more than 500 µM; in test [5] it was more than 500 µM; in test [7], > 100 µM and 388 µM and > 500 µM; in test [10], > 100 µM and 457 µM and > 500 µM.
`CC12CCC3c4ccc(O)cc4CCC3C1C/C(=N\O)C2O` (centres undefined): the TGI in test [1], in test [2], in test [3], in test [4], in test [5] and in [6] was more than 100 µM each time. The TGI in test [7], in test [8], in test [9] and in [10] was more than 100 µM throughout.
On to `CCN(Cc1ccc(F)cc1)c1ccc(CO)c(Br)c1`, for which the GI50 in test [1] is 0.0546 µM; in [2], 16.9 µM; in test [3] it was 16.5 µM; in [4] it was 0.96 µM; in [5], 5.18 µM; in test [6] it was 1.02 µM. Also, the GI50 in test [7] is 5.85 µM; in test [8] it was 13.4 µM; in test [9], 3.42 µM; in [10], 8.71 µM. Moreover, the TGI in test [1] is 0.296 µM; in test [2], 38 µM; in test [3] it was more than 55.1 µM; in test [4] it was 12.6 µM; in test [5], 21.9 µM; in test [6] it was 15.1 µM. The TGI in [7] worked out at 31.1 µM; in test [8], 46.8 µM; in test [9], 19.6 µM; in test [10], 23.9 µM.
For the compound `Oc1ccc(Nc2c3ccccc3nc3occ(Cl)c23)cc1`, the GI50 in [1] is 6.49 µM; in test [2] it was 2.13 µM; in [3] it was 3.79 µM; in test [4], 2.62 µM; in [5], 4.77 µM; in test [6], 3.95 µM. Besides, the GI50 was 12.9 µM in test [7], 2.69 µM in [8], 3.92 µM in test [9] and 2.89 µM in test [10]. The TGI was more than 100 µM in test [1]; 8.62 µM in [2]; 26.8 µM in [3]; 7.26 µM in test [4]; more than 100 µM in test [5]; more than 100 µM in test [6]. Moreover, the TGI in test [7] is more than 100 µM; in test [8], 18.2 µM; in [9] it was 18.3 µM; in test [10] it was 26.4 µM.
As to `O=C1CCC/C=C\C[C@H]2C=CC(=O)/C2=C/C[C@H](C/C=C\CC(F)(F)F)O1`, the GI50 in test [1] is 0.635 µM; in test [2], 0.587 µM; in [3] it was 0.493 µM; in test [4] it was 0.365 µM; in [5], 0.757 µM; in [6], 0.417 µM. The GI50 in test [7] is 0.311 µM; in test [8] it was 0.627 µM; in [9], 0.342 µM; in test [10], 0.492 µM. The TGI was found to be 2.86 µM in test [1]; 2.29 µM in [2]; 1.7 µM in test [3]; 1.19 µM in test [4]; 3.02 µM in [5]; 1.28 µM in test [6]. The TGI in test [7] is 0.677 µM; in [8], 16.7 µM; in test [9], 0.78 µM; in test [10], 2.04 µM.
